Test [1] has as its system OGD/R‐treated HT22 cells. Briefly: Neuroprotective effect on OGD/R-treated HT22 cells, cell viability by CCK-8. The test is classed as cell-based. Particulars: 6 h OGD; for viability at 2 µM / viability at 20 µM: Mus musculus, HT-22, 24 h reoxygenation with compound, relative to control cells, mean ± S.D., n = 3. As for the experimental part: (§1) HT22 cells were washed with phosphate buffered saline (PBS), then DMEM sugar‐free medium (Gibco, USA) was added and placed in the anaerobic incubator of 5% CO2, 1% O2, and 37 °C for 6 h. PB3 or other compounds were previously dissolved in DMEM/F‐12 with 10% FBS and 1% penicillin/streptomycin. After undergoing OGD for 6 h, the medium was replaced by DMEM/F‐12 with 10% FBS and 1% penicillin/streptomycin containing PB3 or other compounds and kept in a humidified 5% CO2, 37 °C incubator for 24 h.
The CCK‐8 assay kit (Yeasen, China) was used to assess cell viability. All operations were performed following instructions. HT22 cells were seeded into the 96‐well plate (3000 cells per well). The cells were cultured at 37 °C with 5% CO2 in a humidified incubator overnight. After 6 h of OGD, the medium was replaced by DMEM/F‐12 with 10% FBS and 1% penicillin/streptomycin containing PB3 or other compounds and kept in a humidified 5% CO2, 37 °C incubator for 24 h. Then, the cells were washed with PBS, the medium was replaced with DMEM/F‐12 with 10% FBS and 1% penicillin/streptomycin containing 10% CCK‐8 solution, and incubated for 1 h at 37 °C. The absorbance was assessed by a Synergy H1 multi‐mode microplate reader (BioTek, USA) at 450 nm.

In test [2] the test system is HT22 cells under OGD/R injury. In words: Apoptosis level of HT22 cells under OGD/R (TUNEL staining and immunoblotting). Format: cell-based. As for the experimental part:
as §1
Apoptosis level was evaluated by TUNEL staining and flow cytometry. For TUNEL staining, HT22 cells were treated with 4% paraformaldehyde for 15 min. Then the fixed brain tissue slices and HT22 cells were permeabilized for 5 min using 1% Triton X‐100 (Sigma‐Aldrich, USA) dissolved in PBS. TUNEL staining was executed by following the instructions, using a one‐step TUNEL apoptosis assay kit (Meilunbio, China). Red fluorescence was utilized to identify apoptotic cells, while 4′, 6‐diamidino‐2‐phenylindole (DAPI) was used to counterstain the nuclei. The fluorescence microscope (Carl Zeiss, Germany) was used to obtain images. For flow cytometry, apoptotic cells were determined with the Annexin V‐Alexa Fluor 488/PI apoptosis detection kit (Yeasen, China) by following the instructions. EDTA‐free trypsin (Gibco, USA) was added to HT22 cells (2.5 × 10^5 cells). The cells were collected and washed with pre‐cooling PBS 2 times, then suspended in 250 µL 1× binding buffer. 100 µL cell suspension was dyed with 5 µL Annexin V‐Alexa Fluor 488 and 10 µL PI and plunged into darkness at room temperature for 15 min. Then the cell suspension was mixed with 400 µL of 1× binding buffer. Cell apoptosis was immediately determined by Cytek Aurora (Cytek Biosciences, USA).
Cells and tissues were homogenized in RIPA buffer (Beyotime, China) containing protease inhibitors (Biovision, USA) on ice for 30 min. After centrifugation (13000 r min^−1, 4 °C) for 10 min, the resulting supernatant was collected. The protein concentrations were determined by a BCA protein assay kit (Thermo Scientific, USA). After separating a 10% sodium dodecyl sulfate (SDS)‐polyacrylamide gel, protein on the gel was then transferred onto nitrocellulose membranes (Merck, USA), which were blocked with 5% bovine serum albumin for 1 h to prevent non‐specific binding. Then, the anti‐caspase 3 antibody (catalog no. 9662, Cell Signaling Technology, USA), anti‐Bcl‐2 antibody (catalog no. GTX100064, GeneTex, USA), anti‐G3BP1 antibody (catalog no. 66486‐1‐Ig, Proteintech, China), anti‐β‐tubulin antibody (catalog no. 66240‐1‐Ig, Proteintech, China), and anti‐β‐actin antibody (catalog no. 66009‐1‐Ig, Proteintech, China) were used for treating the membrane overnight at 4 °C. Bound antibodies were detected with the species‐appropriate horseradish peroxidase‐labeled secondary antibody (Jackson ImmunoResearch, USA) using ECL reagents (ShareBio, China). Protein‐specific signals were detected using a Bio‐Rad Imager (Bio‐Rad, USA), and the bands were quantified by densitometric analysis software (ImageJ). β‐tubulin or β‐actin was used as a loading control.

Where [3] appears, read: 50 and 100 µM, compared with the model group.
[4] abbreviates: 50 µM, compared with the model group.

For the molecule `Oc1cc(O)c2c(c1)O[C@H](c1ccc(O)c(O)c1)[C@@H](O)[C@@H]2c1c(O)cc(O)c2c1O[C@H](c1ccc(O)c(O)c1)[C@@H](O)C2` [Compound 1, procyanidin B3], in test [1], the viability at 2 µM is 63.9 ± 3.36% and the viability at 20 µM is 70.9 ± 6.71%. The cell viability rate result in test [1] (PB3 at 20 to 400 µM, 24 h treatment) is reported as “significantly improve cell viability rate”. Besides, in test [2] (setting [3]), the “expression of Bcl‐2” value is “significantly increased” and the “expression of cleaved caspase‐3” value is on record as “significantly decreased”. Further, the “rate of TUNEL‐positive cells” value in test [2] (HT22, OGD/R, different concentrations) is listed as “dose‐dependently reduced”.
For the molecule `CC(C)c1c(O)cc(O)c2c1O[C@H](c1ccc(O)c(O)c1)[C@@H](O)[C@@H]2c1c(O)cc(O)c2c1O[C@H](c1ccc(O)c(O)c1)[C@@H](O)C2` [Compound 6c, 8‐Isopropyl‐(+)‐Catechin‐(4α,8)‐(+)‐Catechin], in test [1], the viability at 2 µM was 66 ± 1.97% and the viability at 20 µM turned out to be 83.6 ± 4.34%. For the same molecule, in test [2] (setting [4]), the “expression of Bcl‐2” value is on record as “increase the expression of Bcl‐2”, the “expression of cleaved caspase‐3” value is “decrease the expression of cleaved caspase‐3” and the “rate of TUNEL‐positive cells” value is recorded as “reduce the rate of TUNEL‐positive cells”.

For the origin of these results see article PMC12677652, “Procyanidin B3 and Its Derivatives Alleviate Neuronal Injury by Targeting G3BP1 for Ischemic Stroke Therapy” (Advanced Science, 2025).
